The results in this text go back to a melting point compilation (Tetko et al.; mined from patent text by program, amines drawn as free bases though some values may be those of a salt).

`NC1CCN(c2cccc(Cl)n2)CC1` returned a melting point of 36 to 38 °C. With `CCOC(=O)c1ccc(-c2[nH]nc3c2C(=O)c2c(NC(N)=O)cccc2-3)s1`, the melting point was above 280 °C. `O=C1Nc2ccccc2Oc2c1csc2Cl` gave a melting point of 224 to 227 °C. In turn, `Cc1cc2c(s1)Oc1ccc(F)cc1NC2=O` gave a melting point of 274 to 275 °C. The result for `OCc1cc2ccc3c4ccccc4ccc3c2s1` reads 169 to 170 °C. `c1ccc2c(N3CCCC3)nc(N3CCCC3)nc2c1` came in with a melting point of 127 to 129 °C. With `COc1ccc(N2CCOCC2)c2sc(NC(=O)N(C)C3CCCC3)nc12`, the melting point was in the range of 110 to 125 °C. On to `Nc1cc(=O)n(-c2ccccc2)[nH]1`, for which the melting point lay in the range of 218 to 219 °C. `COc1cc(C=CC(=O)Nc2cnc3c(C)c(Cl)ccc3c2-c2ccccc2C)cc(OC)c1OC(C)=O` showed a melting point of 213 to 214 °C.

In turn, `CSc1ccc(-c2sc(NC(C)=O)nc2/C=C/c2ccc([N+](=O)[O-])cc2)cc1` had a melting point of 228 to 230 °C.

As to `COc1cc2c(cc1OC)CCC(C(=O)NO)=C2`, the melting point lay within 179 to 180 °C. As for `CCCC(=O)Nc1c(C(=O)c2cccc(Cl)c2)[nH]c2cc(Cl)ccc12`, the melting point fell in the range of 157 to 158 °C. Consider `CCSc1cc(C)nc(SCC)c1NC(=O)CCCCCCCCSc1nc2cccc(C(F)(F)F)c2o1`, for which the melting point fell in the range of 115 to 116 °C. With `O=C(O)C=Cc1ccc(Cn2ccnc2)c(Cl)c1`, the melting point is 227 to 229 °C. In the case of `CNCC(O)c1cccc(Cl)c1` (configuration not stated), the melting point fell in the range of 95.5 to 97 °C. For `CC1CCCC(C)N1C(=O)C=Cc1ccc(C(F)(F)F)cc1` (configuration not stated), the melting point was 89 to 91 °C.

With `O=C(O)COc1ccc2c(c1)-c1nc(S(=O)(=O)C(c3ccccc3)c3ccccc3)sc1CC2`, the melting point lay within 169 to 170 °C. Next, `S=C(NCc1cccnc1)NC(Cc1cccc2ccccc12)=Nc1ccccc1`: 162 to 163 °C; `O=C1OC(=O)[C@@H]2CCC[C@H]12`: 63 to 68 °C. The result for `CS(=O)(=O)c1ccc(CC(N)C(O)C(=O)C2(C(=O)NC(CCCNC(=N)N)C(=O)O)CCCC2N)cc1` (configuration not stated) reads 142 to 145 °C; that for `CCCCCOc1cc(-n2c(=O)cc(C(F)(F)F)n(C)c2=O)c(F)cc1Cl`, 64 to 66 °C; that for `CC(C)c1ccc2c(c1)NC(=O)CC(c1ccnc(C#N)c1)=N2`, 173 to 178 °C. The result for `C#CCC(=C1NCCCS1)[N+](=O)[O-]` reads 132 to 135 °C; that for `CCOCc1nc2c(N)nc3cc(OCc4cccc(OC)c4)ccc3c2n1CC(C)(C)NS(C)(=O)=O`, 221 to 222 °C; that for `O=C(O)CNC1CCCc2ccccc21` (configuration not stated), 227 °C. `FC(F)C(F)(F)Sc1nc(-c2ccc(Cl)cc2)c(-c2cccs2)[nH]1`: the melting point was in the range of 162 to 163 °C. The result for `Cc1ccc(-n2c(-c3sc(NC(=O)c4ccccc4)nc3-c3ccccc3)nc3ccccc3c2=O)cc1` reads above 275 °C. For the compound `CC(C)=CCOc1ccc(C(=O)C=Cc2ccccc2)c(O)c1`, the melting point was 164 to 166 °C. `CCOC(=O)c1c(C(C)C)c(S(=O)(=O)c2ccc(OC)cc2)n2ccccc12` came in with a melting point of 103 to 104 °C. `CC(=O)Nc1ccc(Nc2ccccc2[N+](=O)[O-])cc1` gave a melting point of 164 to 166 °C. The result for `COC(=N[N+](=O)[O-])NCc1ccc(Cl)nc1` reads 112 to 113 °C. `CS(=O)(=O)Cc1ccc(C(=NN)c2ccc(Cl)cc2)cc1` showed a melting point of 52 to 54 °C.

`CS(=O)(=O)c1ccc(Oc2ccc(SC(F)(F)F)cc2)nc1` came in with a melting point of 134 to 135 °C. Compound `O=S1(=O)c2cccc3cccc(c23)N1CC(O)CN1CCN(c2ccc(F)cc2)CC1` (configuration not stated) registered a melting point of 130 °C. On to `CN(C)c1cccc2c(S(=O)(=O)NCC(=O)N3CCC[C@H]3C(=O)OC(C)(C)C)cccc12`, for which the melting point lay in the range of 60 to 67 °C. Regarding `COc1ccc(O)c(NC(=O)C(Br)c2ccccc2)c1` (configuration not stated), the melting point lay within 145 to 147 °C. Regarding `Cc1cc2nc3ccccc3sc-2c(Cl)c1=O`, the melting point amounted to 206 °C. Compound `O=C(Nc1ccc(-n2nc(C(F)(F)F)cc2C(F)(F)F)cc1)c1ccc2c(c1)OCO2` showed a melting point of 222 to 224 °C. In turn, `CC(=O)c1ccc(CCNS(C)(=O)=O)cc1` registered a melting point of 80 to 81 °C. As to `Cc1cc(-n2cccn2)c2cccc(OCc3c(Cl)ccc(S(=O)(=O)N4CCC[C@H]4CO)c3Cl)c2n1`, the melting point worked out at 65 °C.

As to `O=C(Cn1nnnc1S)NO`, the melting point was 105 to 107 °C. `CC(CCc1ccc(F)cc1)(Cn1ccnc1)Sc1cc(Cl)ccc1Cl` (configuration not stated) registered a melting point of 148 °C. `CCCC(NC(C)C(=O)N1C(C(=O)O)CC2CCCCC21)C(=O)OCC` (configuration not stated) yielded a melting point of 86 to 92 °C.

As for `CCOC(=O)c1[nH]cc(-c2ccc(F)cc2)c1-c1ccc(F)cc1`, the melting point lay in the range of 157 to 159 °C.

Compound `CC(=O)NC1CCN(Cc2ccc(CCn3cnc4cc(-c5ccc(Cl)cc5)sc4c3=O)cc2)C1` (configuration not stated) returned a melting point of 196 to 198 °C. Next, `CCCCS(=O)(=O)NC(=O)CCc1cc(OC(C)C)nn1Cc1ccc(Cl)cc1Cl`: 133 to 134 °C. On to `CCN(CC)CCSc1nnc(SCN2C(=O)c3ccccc3S2(=O)=O)s1`, for which the melting point lay in the range of 93 to 94.5 °C. For the compound `CCNc1cc(Cl)c(C(F)(F)F)cc1[N+](=O)[O-]`, the melting point lay in the range of 92.5 to 94 °C.

The compound `CC(C)(C)Oc1ccc(S(=O)(=O)N2c3ccccc3C[C@H]2C(=O)NCCOc2ccc(CC(=O)O)cc2)cc1` displayed a melting point of 68 to 71 °C. Compound `N#Cc1cnc2c(c1Nc1ccc(Oc3ccccc3)cc1)C=C1N=CN=C1C2` had a melting point above 270 °C.

For `CN(C)C(=S)SC(C[N+](=O)[O-])c1ccc(Br)cc1` (configuration not stated), the melting point fell in the range of 79 to 81 °C.

`COc1cc(NC(=O)N[C@H]2CCCCNC2=O)c(O)c(C(C)(C)C)c1`: the melting point lay within 178 to 179 °C. Compound `O=c1cc(-c2cc(OCc3ccccc3)cc(OCc3ccccc3)c2)oc2cc(OCC3CO3)ccc12` (configuration not stated) returned a melting point of 172 to 173 °C. The result for `CC(C)(C)c1cc(C[C@@H]2N[C@@H](c3ccccc3)[C@@H](c3ccccc3)OC2=O)ccc1O` reads 76 to 80 °C; that for `COc1cc(Cl)c(N=C=S)cc1C(=O)Nc1c(C)cccc1C`, 191 to 192 °C; that for `CCCCOc1nc2ccnn2c2ncccc12`, 99.8 °C. `CCCc1ccc(S(=O)(=O)Nc2ccc3nc(C)c(C)nc3c2)cc1` had a melting point of 198 to 199 °C. Turning to `CC(C)Cn1c(CN2C(=O)c3ccccc3C2=O)c(-c2ccc(Cl)cc2)c2cc(OCc3ccccc3)ccc2c1=O`, the melting point fell in the range of 182 to 183 °C. `O=C(Nc1cccc(Cl)c1)N1CCc2cc(S(=O)(=O)N3CCN(c4cccc(Cl)c4)CC3)ccc21` yielded a melting point of 190 °C. The compound `Fc1ccc2c(C3=CCN(CC4CCc5ccccc5O4)CC3)c[nH]c2c1` (configuration not stated) came in with a melting point of 160 to 161 °C. As for `CC(c1cc(F)ccc1Oc1nc2ccc(-n3cc(-c4ccccc4)nn3)cc2cc1Cc1ccccc1)n1ccnc1` (configuration not stated), the melting point fell in the range of 118 to 120 °C. Turning to `CCc1nc(N)nc(N)c1-c1ccc(N(C)C)c([N+](=O)[O-])c1`, the melting point was in the range of 256 to 258 °C.

As for `CS(=O)(=O)c1ccc(-c2cnc(N(Cc3ccc(C(F)(F)P(=O)(O)O)c(Cl)c3)c3ccc(Cl)c(Cl)c3)o2)cc1`, the melting point lay in the range of 141 to 143 °C. `CCOCc1nc2c(N)nc3ccccc3c2n1CCCCS(=O)(=O)N1CCCCC1` gave a melting point of 185 to 188 °C. Next, `CC(C)CC(=O)Nc1ccc2oc3c(c2c1)CCCCCC3`: 154 to 155 °C. In turn, `CN(CCCNC(=O)c1c(Cl)ccc2nc3ccccc3nc12)CCCNC(=O)c1c(Cl)ccc2nc3ccccc3nc12` came in with a melting point of 206 to 207 °C. Take `CN(c1cccc2cc(-c3nccs3)[nH]c12)S(=O)(=O)c1ccsc1COCC(=O)O`: the melting point was 189 °C.

`CCOC(=O)C1=C(C)N(C(C)=O)C(c2csc(C)n2)=NC1C1(F)C=CC=CC1Cl` (configuration not stated) returned a melting point of 164 to 166 °C.

Compound `CCC1(CCOC2CCCCO2)C(=O)N2CC=CC(C(=O)OC)N2C1=O` (configuration not stated) came in with a melting point of 96 to 97 °C.

As to `COC(=O)CSc1cc(C)ccc1[N+](=O)[O-]`, the melting point was in the range of 74 to 75 °C. Next, `COC(=O)[C@H](Cc1cc(Cl)c(OCc2cccc3cc(-c4ccccc4)oc23)c(Cl)c1)NC(=O)C(F)(F)F`: 141 to 145 °C. The compound `O=c1[nH]c2ccccc2c2ccc3nc(Nc4c(Cl)cccc4Cl)[nH]c3c12` had a melting point above 300 °C. The result for `CCC1c2cccn2-c2ccc(F)cc2N1S(=O)(=O)c1cc(C)c(O)c(C)c1` (configuration not stated) reads 216 to 218 °C; that for `Cc1nn(-c2ccc3cc(-c4ccc(C(=O)Cl)cc4)oc3c2)nc1-c1ccccc1`, 275 °C; that for `N#CC1CCn2cccc21` (configuration not stated), 44 to 45 °C.

For the compound `O=C1c2ccccc2C(=O)c2sc(-c3ccc(F)cc3F)nc21`, the melting point was above 260 °C. With `Cc1ccc(N2CCN(CCCCc3ccc(C4CCC(=O)N4)cc3)CC2)cc1` (configuration not stated), the melting point was in the range of 164 to 165 °C.

In turn, `CC(=Cc1ccccc1)c1ccc2c(c1)OCCC2(C)C` returned a melting point of 44 to 46 °C.

With `CCOC(=O)Nc1cc2c3ccccc3n(Cc3ccccc3)c2cn1`, the melting point was 217 to 218 °C. `Cc1cccc(C2c3cc(NC(=O)CC(C)(C)C)c(C)c(C)c3OC2(C)C)c1` (configuration not stated) gave a melting point of 156 to 157 °C. Compound `C=Cc1ccc(OC)c(OC)c1` displayed a melting point of 110 to 114 °C. Compound `CCOc1ccccc1C1=NC(=O)C2=NC=NC2=N1` came in with a melting point of 276 to 277 °C. `C=COC(=O)N=c1sc2cc(OC(F)(F)F)ccc2n1CCSC(C)=O` registered a melting point of 173 °C.

`CCOC(=O)c1ccc(N2CCC(NC(=O)OC(C)(C)C)CC2)nc1` yielded a melting point of 140 to 142 °C. `Cn1c(C(F)(F)F)cc(=O)n(-c2cc(OC(=O)NC3CCCCC3)c(Cl)cc2F)c1=O` displayed a melting point of 171 to 173 °C. The result for `CC(C)c1cc(Cc2cnc(N)nc2N)cc(C(C)C)c1N` reads 177 to 180 °C. For the compound `Cc1ccc(-c2nnc3c(n2)CCCC3)nc1-c1ccc(F)cc1`, the melting point is 105 °C.
